The target in test [1] is T1, androgen receptor (AR) splicing variant AR-v7 (Homo sapiens, UniProt P10275).
T1 construct: The degradation activity of compounds on AR-v7 in 22RV1 cells; host or cells: 22RV1 cells
T1 sequence (P10275 1-644 isoform P10275-3): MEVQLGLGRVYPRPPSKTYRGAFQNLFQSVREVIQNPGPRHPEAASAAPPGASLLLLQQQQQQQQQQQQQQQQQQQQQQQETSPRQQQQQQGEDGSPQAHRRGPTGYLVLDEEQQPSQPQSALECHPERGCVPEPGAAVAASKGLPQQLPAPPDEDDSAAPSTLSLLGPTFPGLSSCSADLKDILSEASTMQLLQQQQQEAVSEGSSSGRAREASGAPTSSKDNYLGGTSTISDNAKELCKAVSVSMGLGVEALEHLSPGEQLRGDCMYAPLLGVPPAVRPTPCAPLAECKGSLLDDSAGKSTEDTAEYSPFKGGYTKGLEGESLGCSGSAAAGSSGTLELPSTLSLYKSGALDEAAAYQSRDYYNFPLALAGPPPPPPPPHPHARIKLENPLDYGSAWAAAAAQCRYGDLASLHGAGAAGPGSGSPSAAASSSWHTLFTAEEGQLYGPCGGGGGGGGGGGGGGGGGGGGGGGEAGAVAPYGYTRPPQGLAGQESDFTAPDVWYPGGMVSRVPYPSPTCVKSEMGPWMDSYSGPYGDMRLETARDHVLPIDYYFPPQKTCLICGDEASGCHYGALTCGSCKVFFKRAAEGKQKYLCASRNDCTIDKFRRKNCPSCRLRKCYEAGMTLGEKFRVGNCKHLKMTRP
Kind of test: Degradation activity on androgen receptor splicing variant AR-v7 in 22RV1 cells (ELISA). The test is classed as cell-based. As to conditions: AR-v7 degradation in 22RV1 cells, 48 h, class symbols. A general note: ELISA stands for enzyme-linked immunosorbent assay.

The mark [2] stands for this setting: Homo sapiens, 22Rv1, 144 h, read-out: 22RV1 IC50 (nM), 22RV1 cells, 6 days culture, CCK-8, OD 450 nm.
Where [3] appears, read: read-out: 22RV1 IC50, 22RV1 cells, 6 days culture, CCK-8, OD 450 nm.

Here are results for 23 compounds from patent US20250051347A1, “BIFUNCTIONAL CHIMERIC HETEROCYCLIC COMPOUND AND USE THEREOF AS ANDROGEN RECEPTOR DEGRADER” (Hinova Pharmaceuticals, Inc., priority 2021, published 2025).

Like-named read-outs stand apart in the source and are kept apart here.

Turning to `Cc1nnc(-c2cnc(Oc3ccc(C(C)(C)c4ccc(O[C@H]5C[C@H](Nc6ccc7c(c6)C(=O)N(C6CCC(=O)NC6=O)C7=O)C5)cc4)cc3)o2)o1` (stereo partly shown) [Example 96, 2-(2,6-dioxopiperidin-3-yl)-5-(((1r,3r)-3-(4-(2-(4-((5-(5-methyl-1,3,4-oxadiazol-2-yl)oxazol-2-yl)oxy)phenyl)propan-2-yl)phenoxy)cyclobutyl)amino) isoindolin-1,3-dione], the IC50 in the test on 22RV1 cells (setting [2]) was 25 nM. In test [1], the DC50 is < 10 nM.
With `Cc1nc(-c2ncc(Oc3ccc(C(C)(C)c4ccc(OC5CC(Nc6ccc7c(c6)CN([C@H]6CCC(=O)NC6=O)C7=O)C5)cc4)cc3)cn2)no1` (stereo partly shown) [Example 101], the IC50 with 22RV1 cells (setting [3]) stood at 2.4 nM. Also, the half-maximal degradation concentration (DC50) in test [1] is < 10 nM.
Regarding `CC(O)c1ccc(Oc2ccc(C3(c4ccc(O[C@H]5C[C@H](Nc6ccc7c(c6)C(=O)N(C6CCC(=O)NC6=O)C7=O)C5)cc4)CCCC3)cc2)nn1` (stereo partly shown) [Example 103], the IC50 in the test on 22RV1 cells (setting [2]) came out at 2 nM. The half-maximal degradation concentration (DC50) in test [1] is < 10 nM.
As to `CC(=O)c1ccc(Oc2ccc(C3(c4ccc(O[C@H]5C[C@H](Nc6ccc7c(c6)C(=O)N(C6CCC(=O)NC6=O)C7=O)C5)cc4)CCCC3)cc2)nn1` (stereo partly shown) [Example 104], in the test with 22RV1 cells (setting [2]), the IC50 is 1 nM. In test [1], the half-maximal degradation concentration (DC50) is < 10 nM.
The like results for `CC(O)c1ccc(Oc2ccc(C3(c4ccc(O[C@H]5C[C@H](Nc6ccc7c(c6)C(=O)N(C6CCC(=O)NC6=O)C7=O)C5)cc4)CCOCC3)cc2)nn1` (stereo partly shown) [Example 105] were, in that order, 0.2 nM and < 10 nM.
Taken in the same sequence, the figures for `CC(=O)c1ccc(Oc2ccc(C3(c4ccc(O[C@H]5C[C@H](Nc6ccc7c(c6)C(=O)N(C6CCC(=O)NC6=O)C7=O)C5)cc4)CCOCC3)cc2)nn1` (stereo partly shown) [Example 106] were 0.3 nM and < 10 nM.
Taken in the same sequence, the figures for `CC(=O)c1nccc(COc2ccc(C(C)(C)c3ccc(OCCNc4ccc5c(c4)C(=O)N(C4CCC(=O)NC4=O)C5=O)cc3)cc2)n1` (stereo not shown) [Example 109, 5-((2-(4-(2-(4-((2-acetylpyrimidin-4-yl)methoxy)phenyl)propan-2-yl)phenoxy)ethyl)amino)-2-(2,6-dioxopiperidin-3-yl) isoindolin-1,3-dione] were 9 nM and < 10 nM.
In the case of `CC(C)(c1ccc(OCc2ccnc(C(=O)C3CC3)n2)cc1)c1ccc(O[C@H]2C[C@H](Nc3ccc4c(c3)C(=O)N(C3CCC(=O)NC3=O)C4=O)C2)cc1` (stereo partly drawn) [Example 115, 5-(((trans)-3-(4-(2-(4-((2-(cyclopropanecarbonyl)pyrimidin-4-yl)methoxy)phenyl)propan-2-yl)phenoxy)cyclobutyl)amino)-2-(2,6-dioxopiperidin-3-yl)isoindolin-1,3-dione], in the test on 22RV1 cells (setting [2]), the IC50 is 5 nM. In test [1], the DC50 is < 10 nM.
The like results for `CC(C)(c1ccc(OCc2cccc(C(O)C3CC3)n2)cc1)c1ccc(O[C@H]2C[C@H](Nc3ccc4c(c3)C(=O)N(C3CCC(=O)NC3=O)C4=O)C2)cc1` (stereo partly drawn) [Example 116, 5-(((trans)-3-(4-(2-(4-((6-(cyclopropyl(hydroxyl)methyl)pyridin-2-yl)methoxy)phenyl)propan-2-yl)phenoxy)cyclobutyl)amino)-2-(2,6-dioxopiperidin-3-yl)isoindolin-1,3-dione] were, in that order, 17 nM and < 10 nM.
Taken in the same sequence, the figures for `CC(O)c1ccc(Oc2ccc(C(C)(C)c3ccc(O[C@H]4C[C@H](Nc5ccc6c(c5)C(=O)N(C5CCC(=O)NC5=O)C6=O)C4)cc3)cc2)cn1` (stereo partly shown) [Example 123] were 7 nM and < 10 nM.
The like results for `CC(=O)c1ccc(Oc2ccc(C(C)(C)c3ccc(O[C@H]4C[C@H](Nc5ccc6c(c5)C(=O)N(C5CCC(=O)NC5=O)C6=O)C4)cc3)cc2)cn1` (stereo partly shown) [Example 124] were, in that order, 8 nM and < 10 nM.
With `CC(=O)c1ncc(Oc2ccc(C(C)(C)c3ccc(O[C@H]4C[C@@H](Nc5ccc6c(c5)C(=O)N(C5CCC(=O)NC5=O)C6=O)C4)cc3)cc2)cn1` (stereo partly drawn) [Example 128, 5-(((cis)-3-(4-(2-(4-((2-acetylpyrimidin-5-yl)oxy)phenyl)propan-2-yl)phenoxy)cyclobutyl)amino)-2-(2,6-dioxopiperidin-3-yl)isoindolin-1,3-dione], the 50% inhibitory concentration (IC50) in the test with 22RV1 cells (setting [2]) was 7 nM. Moreover, the 50% degradation concentration (DC50) in test [1] is 11 to 100 nM.
As to `CC(=O)c1cnc(Oc2ccc(C(C)(C)c3ccc(O[C@H]4C[C@@H](Nc5ccc6c(c5)C(=O)N(C5CCC(=O)NC5=O)C6=O)C4)cc3)cc2)cn1` (stereo partly shown) [Example 130], the IC50 with 22RV1 cells (setting [2]) is 13 nM. In addition, the DC50 in test [1] was < 10 nM.
The like results for `CCC(CC)(c1ccc(Oc2cnc(C(C)O)nc2)cc1)c1ccc(O[C@H]2C[C@H](Nc3ccc4c(c3)C(=O)N(C3CCC(=O)NC3=O)C4=O)C2)cc1` (stereo partly shown) [Example 131] were, in that order, 4 nM and < 10 nM.
The like results for `CCC(CC)(c1ccc(Oc2cnc(C(C)=O)nc2)cc1)c1ccc(O[C@H]2C[C@H](Nc3ccc4c(c3)C(=O)N(C3CCC(=O)NC3=O)C4=O)C2)cc1` (stereo partly shown) [Example 132] were, in that order, 5 nM and < 10 nM.
In the case of `CCC(CC)(c1ccc(Oc2cnc(C(C)O)nc2)cc1)c1ccc(O[C@H]2C[C@@H](Nc3ccc4c(c3)C(=O)N(C3CCC(=O)NC3=O)C4=O)C2)cc1` (stereo partly shown) [Example 133], the half-inhibitory concentration (IC50) with 22RV1 cells (setting [3]) is 9 nM. The half-maximal degradation concentration (DC50) in test [1] was < 10 nM.
With `CC(O)c1ncc(Oc2ccc(C3(c4ccc(O[C@H]5C[C@H](Nc6ccc7c(c6)C(=O)N(C6CCC(=O)NC6=O)C7=O)C5)cc4)CCCC3)cc2)cn1` (stereo partly shown) [Example 134], the half-inhibitory concentration (IC50) with 22RV1 cells (setting [2]) was < 1 nM. The half-maximal degradation concentration (DC50) in test [1] was < 10 nM.
As to `CC(=O)c1ncc(Oc2ccc(C3(c4ccc(O[C@H]5C[C@H](Nc6ccc7c(c6)C(=O)N(C6CCC(=O)NC6=O)C7=O)C5)cc4)CCCC3)cc2)cn1` (stereo partly shown) [Example 135], in the test on 22RV1 cells (setting [2]), the IC50 is 2 nM. For the same compound, the DC50 in test [1] is < 10 nM.
Consider `CN1CCN(C(=O)c2noc(COc3ccc(C(C)(C)c4ccc(OCCCNc5ccc6c(c5)C(=O)N(C5CCC(=O)NC5=O)C6=O)cc4)cc3)n2)CC1` (stereo not shown) [Example 141], for which, in the test with 22RV1 cells (setting [2]), the IC50 is 85 nM. For the same compound, the DC50 in test [1] fell in the range of 11 to 100 nM.
As for `CC(C)(c1ccc(OCCCNc2ccc3c(c2)C(=O)N(C2CCC(=O)NC2=O)C3=O)cc1)c1ccc(OCc2nc(C(=O)N3CCOCC3)no2)cc1` (stereo not shown) [Example 142, 2-(2,6-dioxopiperidin-3-yl)-5-((3-(4-(2-(4-((3-(morpholine-4-carbonyl)-1,2,4-oxadiazol-5-yl)methoxy)phenyl)propan-2-yl)phenoxy)propyl)amino)isoindolin-1,3-dione], the IC50 in the test with 22RV1 cells (setting [2]) is 61 nM. Also, the DC50 in test [1] fell in the range of 11 to 100 nM.
On to `CC(C)(c1ccc(OCCCNc2ccc3c(c2)C(=O)N(C2CCC(=O)NC2=O)C3=O)cc1)c1ccc(OCc2nc(C(N)=O)no2)cc1` (stereo not shown) [Example 143, 5-((4-(2-(4-(3-((2-(2,6-dioxopiperidin-3-yl)-1,3-dioxoisoindolin-5-yl)amino)propoxy)phenyl)propan-2-yl)phenoxy)methyl)-1,2,4-oxadiazol-3-carbonylamine], for which the IC50 in the test with 22RV1 cells (setting [2]) was 160 nM. Besides, in test [1], the DC50 lay within 11 to 100 nM.
Taken in the same sequence, the figures for `CC(C)(c1ccc(Oc2nccc(N3CC4(COC4)C3)n2)cc1)c1ccc(O[C@H]2C[C@@H](Nc3ccc4c(c3)C(=O)N(C3CCC(=O)NC3=O)C4=O)C2)cc1` (stereo partly shown) [Example 155] were 39 nM and < 10 nM.
The like results for `CC(C)(c1ccc(Oc2nccc(N3CC4(COC4)C3)n2)cc1)c1ccc(O[C@H]2C[C@H](Nc3ccc4c(c3)C(=O)N(C3CCC(=O)NC3=O)C4=O)C2)cc1` (stereo partly shown) [Example 156] were, in that order, 10 nM and < 10 nM.

Usually IC50 stands for the concentration at which inhibition is half-maximal. In general, DC50 refers to the midpoint of the concentration-degradation curve.
